# Experimental data reported in patent US11807644B2 (PMV Pharmaceuticals, Inc., priority 2020, dated 2023).
# Target: T1, recombinant His-tag Y220C p53 DBD protein (Homo sapiens, UniProt P04637, Y220C)
# T1 construct: recombinant His-tag Y220C p53 DBD protein (amino acids #˜94-312)
# Experiment: In vitro DNA binding activity assay (TR-FRET): binding of His-tag Y220C p53 DBD to biotin-labeled consensus DNA
# Type: biochemical
# Details: SC150 = concentration to increase DNA binding by […], His-tag Y220C p53 DBD, biotin-labeled consensus DNA
# Description: DNA binding activity of the compounds was measured using a TR-FRET (Time-Resolved Fluorescence Resonance Energy Transfer) assay in which recombinant His-tag Y220C p53 DBD protein binds to biotin-labeled consensus DNA. Binding of recombinant His-tag Y220C p53 DBD protein and biotin-labeled consensus DNA was registered by the FRET (fluorescence resonance energy transfer) between allophycocyanin (APC) conjugated anti-His tag antibody and Europium-(Eu) conjugated Streptavidin.
# The compounds of TABLES 1-9 (2 mM stock in dimethylsulfoxide) were diluted 3-fold in series in dimethylsulfoxide. 1.2 μL of a compound solution was added to each well of 384-well polypropylene black plates (NUNC). Thirty μL per well of 181 nM recombinant His-tag Y220C p53 DBD protein (amino acids #˜94-312; SEQ ID NO: 1) and 6.1 nM of APC conjugated anti-His tag antibody (Columbia Biosciences) in ice-cold Assay Buffer 1 (50 mM Tris-HCl, pH 7.4, 75 mM KCl, 0.75 mM DTT and 0.2 mg/ml, BSA) were added. As a background control. 30 μL of Assay Buffer 1 containing 6.1 nM of APC anti-His antibody (No Y220C protein) was also added into a second set of serially diluted compound plates. The samples were spun by centrifuge at 1,200 rpm (Eppendorf 5810R Plate centrifuge) for 1 minute and incubated at room temperature (20° C.) for 15 min. The samples were then further incubated at either 27° C. or 29° C. for 60 min. […] The samples were spun by centrifuge at 1,200 rpm for 1 min and incubated at room temperature (20° C.) for 20 min. Assay signals were monitored by reading excitation at 340 nm, and emission fluorescence at 615 nm and 665 nm on an Envision® reader. Normalized TR-FRET (time-resolved fluorescence resonance energy transfer) assay signal (Rn) was calculated by the formula: Rn=[(A−Ba−C×(D−Bd))/(D−Bd)]×(D−Bd) Wherein: • A is the fluorescence intensity of the sample at 665 nm; • D is the fluorescence intensity of the sample at 615 nm; • Ba and Bd are plate backgrounds at 665 nm and 615 nm, respectively; and • Dc is the fluorescence intensity of 0.67 nM Eu-SA in the assay buffer at 615 nm.
# The cross-talk factor (C) was determined by the following formula: C=(Ac−Ba)/(Dc−Bd) wherein Ac is the fluorescence intensity of 0.67 nM Europium (Eu) conjugated Streptavidin in the assay buffer at 665 nm.
row,SMILES,Y220C SC150 (μM)
1,"CN1CC[C@@H](Nc2cccc3c2cc(-c2noc(CNC(=O)c4cn5c(n4)CCCC5)n2)n3CC(F)(F)F)[C@@H](F)C1 [Compound 541B, N-{[3-(4-{[(3S,4R)-3-fluoro-1-methylpiperidin-4-yl]amino}-1-(2,2,2-trifluoroethyl)-1H-indol-2-yl)-1,2,4-oxadiazol-5-yl]methyl}-5H,6H, 7H,8H-imidazo[1,2-a]pyridine-2-carboxamide]",* (* = 0 μM ≤ SC150 < 0.1 μM)
2,"Cn1cc(C(=O)NCc2nc(-c3cc4c(N[C@H]5CCN(C(C)(C)C)C[C@H]5F)cccc4n3CC(F)(F)F)no2)cn1 [Compound 406B, N-{[3-(4-{[(3R,4S)-1-tert-butyl-3-fluoropiperidin-4-yl]amino}-1-(2,2,2-trifluoroethyl)-1H-indol-2-yl)-1,2,4-oxadiazol-5-yl]methyl}-1-methyl-1H-pyrazole-4-carboxamide]",* (* = 0 μM ≤ SC150 < 0.1 μM)
3,"CN1CC[C@@H](Nc2cccc3c2cc(-c2noc(CNC(=O)c4ccccn4)n2)n3CC(F)(F)F)[C@@H](F)C1 [Compound 201B, N-{[3-(4-{[(3S,4R)-3-fluoro-1-methylpiperidin-4-yl]amino}-1-(2,2,2-trifluoroethyl)-1H-indol-2-yl)-1,2,4-oxadiazol-5-yl]methyl}pyridine-2-carboxamide]",* (* = 0 μM ≤ SC150 < 0.1 μM)
4,"CCOCC1(n2ccc(C(=O)NCc3nc(-c4cc5c(N[C@@H]6CCN(C)C[C@@H]6F)cccc5n4CC(F)(F)F)no3)c2)CC1 [Compound 481B, 1-[1-(ethoxymethyl)cyclopropyl]-N-{[3-(4-{[(3S,4R)-3-fluoro-1-methylpiperidin-4-yl]amino}-1-(2,2,2-trifluoroethyl)-1H-indol-2-yl)-1,2,4-oxadiazol-5-yl]methyl}-1H-pyrrole-3-carboxamide]",* (* = 0 μM ≤ SC150 < 0.1 μM)
5,"CN1CC[C@@H](Nc2cccc3c2cc(-c2noc(CNC(=O)c4ccn(C)c4)n2)n3CC(F)(F)F)[C@@H](F)C1 [Compound 181B, N-{[3-(4-{[(3S,4R)-3-fluoro-1-methylpiperidin-4-yl]amino}-1-(2,2,2-trifluoroehyl)-1H-indol-2-yl)-1,2,4-oxadiazol-5-yl]methyl}-1-methyl-1H-pyrrole-3-carboxamide]",* (* = 0 μM ≤ SC150 < 0.1 μM)
6,"COCC1(n2ccc(C(=O)NCc3nc(-c4cc5c(N[C@@H]6CCNC[C@@H]6F)cccc5n4CC(F)(F)F)no3)c2)CC1 [Compound 475B, N-{[3-(4-{[(3S,4R)-3-fluoropiperidin-4-yl]amino}-1-(2,2,2-trifluoroethyl)-1H-indol-2-yl)-1,2,4-oxadiazol-5-yl]methyl}-1-[1-(methoxymethyl)cyclopropyl]-1H-pyrrole-3-carboxamide]",* (* = 0 μM ≤ SC150 < 0.1 μM)
7,"CC(C)(C)n1ccc(C(=O)NCc2nc(-c3cc4c(N[C@@H]5CCN(C6CC6)C[C@@H]5F)cccc4n3CC(F)(F)F)no2)c1 [Compound 330B, 1-tert-butyl-N-{[3-(4-{[(3S,4R)-1-cyclopropyl-3-fluoropiperidin-4-yl]amino}-1-(2,2,2-trifluoroethyl)-1H-indol-2-yl)-1,2,4-oxadiazol-5-yl]methyl}-1H-pyrrole-3-carboxamide]",* (* = 0 μM ≤ SC150 < 0.1 μM)
8,"CCn1ccc(C(=O)NCc2nc(-c3cc4c(N[C@@H]5CCN(C)C[C@@H]5F)cccc4n3CC(F)(F)F)no2)c1 (racemic) [Compound 179B, (+/−)-1-ethyl-N-{[3-(4-{[(3R,4S)-3-fluoro-1-methylpiperidin-4-yl]amino}-1-(2,2,2-trifluoroethyl)-1H-indol-2-yl)-1,2,4-oxadiazol-5-yl]methyl}-1H-pyrrole-3-carboxamide]",* (* = 0 μM ≤ SC150 < 0.1 μM)
9,"CN1CC[C@@H](Nc2cccc3c2cc(-c2noc(CNC(=O)c4ccn(C5CCC(F)C5)c4)n2)n3CC(F)(F)F)[C@@H](F)C1 (stereo partly drawn) [Compound 345B, N-{[3-(4-{[(3S,4R)-3-fluoro-1-methylpiperidin-4-yl]amino}-1-(2,2,2-trifluoroethyl)-1H-indol-2-yl)-1,2,4-oxadiazol-5-yl]methyl}-1-(3-fluorocyclopentyl)-1H-pyrrole-3-carboxamide]",* (* = 0 μM ≤ SC150 < 0.1 μM)
10,"CN1CCC(Nc2cccc3c2cc(-c2nnc(CNc4cn[nH]c4)s2)n3CC(F)(F)F)CC1 [Compound 82B, N-(1-methylpiperidin-4-yl)-2-(5-{[(1H-pyrazol-4-yl)amino]methyl}-1,3,4-thiadiazol-2-yl)-1-(2,2,2-trifluoroethyl)-1H-indol-4-amine]",** (** = 0.1 μM ≤ SC150 < 0.5 μM)
11,CO[C@@H]1CCC[C@@H]1n1cc(C(=O)NCc2nc(-c3cc4c(N[C@@H]5CCN(C)C[C@@H]5F)cccc4n3CC(F)(F)F)no2)cn1 (racemic) [Compound 370B],* (* = 0 μM ≤ SC150 < 0.1 μM)
12,"CCOC1CCCC1n1ccc(C(=O)NCc2nc(-c3cc4c(N[C@@H]5CCN(C)C[C@@H]5F)cccc4n3CC(F)(F)F)no2)c1 (stereo in doubt) [Compound 376B, 1-[(1R,2R)-2-ethoxycyclopentyl]-N-{[3-(4-{[(3S,4R)-3-fluoro-1-methylpiperidin-4-yl]amino}-1-(2,2,2-trifluoroethyl)-1H-indol-2-yl)-1,2,4-oxadiazol-5-yl]methyl}-1H-pyrrole-3-carboxamide]",* (* = 0 μM ≤ SC150 < 0.1 μM)
13,"CN1CCC(Nc2cccc3c2cc(-c2ccc(CNc4ccc(S(C)(=O)=O)cc4)s2)n3CC(F)(F)F)CC1 [Compound 100B, 2-(5-{[(4-methanesulfonylphenyl)amino]methyl}thiophen-2-yl)-N-(1-methylpiperidin-4-yl)-1-(2,2,2-trifluoroethyl)-1H-indol-4-amine]",** (** = 0.1 μM ≤ SC150 < 0.5 μM)
14,"CN1CC[C@H](Nc2cccc3c2cc(-c2nnc(CNC(=O)C4CC4)s2)n3CC(F)(F)F)[C@H](F)C1 [Compound 25B, N-{[5-(4-{[(3R,4S)-3-fluoro-1-methylpiperidin-4-yl]amino}-1-(2,2,2-trifluoroethyl)-1H-indol-2-yl)-1,3,4-thiadiazol-2-yl]methyl}cyclopropanecarboxamide]",** (** = 0.1 μM ≤ SC150 < 0.5 μM)
15,"COc1cc(S(C)(=O)=O)ccc1NCc1ccc(-c2cc3c(N[C@H]4CCN(C)C[C@H]4F)cccc3n2CC(F)(F)F)s1 (racemic) [Compound 101B, (+/−)-N-[(3R,4S)-3-fluoro-1-methylpiperidin-4-yl]-2-(5-{[(4-methanesulfonyl-2-methoxyphenyl)amino]methyl}thiophen-2-yl)-1-(2,2,2-trifluoroethyl)-1H-indol-4-amine]",* (* = 0 μM ≤ SC150 < 0.1 μM)

# Same assay, conditions: concentration to increase DNA binding by […], incubated at either 27° C. or 29° C. for 60 min
row,SMILES,SC150 (μM)
1,"COc1cc(S(C)(=O)=O)ccc1NCc1ccc(-c2cc3c(N[C@H]4CCN(C)C[C@H]4F)cccc3n2CC(F)(F)F)cc1 (racemic) [Compound 43A, (+/−)-N-[(3R,4S)-3-fluoro-1-methylpiperidin-4-yl]-2-(4-{[(4-methanesulfonyl-2-methoxyphenyl)amino]methyl}phenyl)-1-(2,2,2-trifluoroethyl)-1H-indol-4-amine]",+ (+ = 0 μM ≤ SC150 < 2 μM)
2,"CN(Cc1ccc(-c2cc3c(NC4CCS(=O)(=O)CC4)cccc3n2CC(F)(F)F)cc1)C(=O)OC(C)(C)C [Compound 4A, tert-butyl N-[(4-{4-[(1,1-dioxo-1λ^6-thian-4-yl)amino]-1-(2,2,2-trifluoroethyl)-1H-indol-2-yl}phenyl)methyl]-N-methylcarbamate]",+++ (+++ = 5 μM ≤ SC150 < 10 μM)
3,"O=C(NCc1ccc(-c2cc3c(NC4CCS(=O)(=O)CC4)cccc3n2CC(F)(F)F)cc1)c1ccc(Cl)cc1 [Compound 17A, 4-chloro-N-[(4-{4-[(1,1-dioxo-1λ^6-thian-4-yl)amino]-1-(2,2,2-trifluoroethyl)-1H-indol-2-yl}phenyl)methyl]benzamide]",++ (++ = 2 μM ≤ SC150 < 5 μM)
4,"COCC(O)CN1CCC(Nc2cccc3c2cc(-c2ccc4c[nH]nc4c2)n3CC(F)(F)F)CC1 (stereo not shown) [Compound 48A, 1-(4-{[2-(2H-indazol-6-yl)-1-(2,2,2-trifluoroethyl)-1H-indol-4-yl]amino}piperidin-1-yl)-3-methoxypropan-2-ol]",+++ (+++ = 5 μM ≤ SC150 < 10 μM)
